In series [1] the target is Glutamate receptor ionotropic, NMDA 1 (Rattus norvegicus, UniProt P35439). Kind of series: Inhibition of binding affinity of [3H]L-689,560 to the strychnine insensitive glycine site on rat brain membranes. In kind it is cell membranes, Membrane.
Series [2] in a line: pKa value was measured. In kind it is physicochemical.
The species named for series [3] is Rattus norvegicus. Kind of series: Inhibition of N-Methyl-D-aspartate (NMDA)-induced depolarizations in rat cortical slices. In kind it is functional.
The target of series [4] is Glutamate receptor ionotropic, NMDA 1 (Rattus norvegicus) (UniProt P35439). Kind of series: Inhibition of binding affinity of [3H]L-689,560 to the strychnine insensitive glycine site on rat brain membranes at a concentration of 100 uM. In kind it is cell membranes. The conditions noted are these: Membrane.

This is an account of results in ChEMBL document CHEMBL1128659, “Tetramic acids as novel glycine site antagonists” (Bioorg Med Chem Lett, 1995).

By IC50 is commonly meant the concentration that inhibits the measured activity by half. Higher therefore signals lower potency. For orientation: pKa means the negative logarithm of the acid dissociation constant. Read a low pKa as a stronger acid or weaker base. As a reminder, the inhibition is how much of the control response was suppressed. Low values mean a response near the control, high ones a response far below the control.

Regarding `O=C1N/C(=C\c2ccccc2)C(O)=C1c1ccccc1`, in series [1], the half-maximal inhibitory concentration (IC50) came to 24.2 µM.

Take `O=C1C=C(O)CN1`: in series [2], the pKa stood at 6.4.

In the case of `CC/C=C1/NC(=O)C(c2cccc(Oc3ccccc3)c2)=C1O`, the Kb in series [3] was found to be 6.15 µM. In series [1], this compound displayed an IC50 of 0.7 µM.

Turning to `O=C1N/C(=C/C2CC2)C(O)=C1c1ccccc1`, in series [4], the inhibition worked out at 18%.

Compound `O=c1cc(O)c2ccc(Cl)cc2[nH]1` gave a pKa in series [2] of 5.8.

In series [3], `CC/C=C1/NC(=O)C(c2ccccc2)=C1O` had a Kb of 115 µM. The compound also displayed an IC50 in series [1] of 45.5 µM. For the same compound, the pKa in series [2] is 4.6.

Compound `C=C(C)COc1cccc(C2=C(O)/C(=C\CC)NC2=O)c1` showed a Kb in series [3] of 15.8 µM. This compound also displayed a half-maximal inhibitory concentration (IC50) in series [1] of 3 µM.

For the compound `O=C1N/C(=C\C2CC2)C(O)=C1c1ccccc1`, the IC50 in series [1] was 9.5 µM.

Consider `CCC/C=C1\NC(=O)C(c2ccccc2)=C1O`, for which the Kb in series [3] was 154 µM. The IC50 in series [1] came out at 15.7 µM.
